# Square brackets hold non-standard residues; d marks the D form. Peptide text beside a SMILES is read from it. Sar = CNCC(=O)O
# Columns and labels:
# [1] = tested on: human red blood cells (RBCs); type: cell-based; settings: for minimal hemolytic concentration (MHC): red cells of human
# Description: (§1) FIG. 4. (A) Proof-of-concept: Inhibition of Hsmr activity by an SMR TM4-mimic peptide. Hsmr-mediated efflux of the fluorescent toxicant ethidium bromide (EtBr) from E. coli cells upon treatment with a peptide derived from Hsmr TM4(85-105) [sequence shown]. Curves represent the change in EtBr fluorescence upon exiting the bacteria. Ac-A=acetyl-Ala. The black line indicates efflux by Hsmr in the absence of peptide; red line=efflux after addition of 1 μM TM4 peptide. The % efflux is compared in the black and red bars at the right. (B) Bioactivity profiles of designed SMR drug efflux inhibitor peptides. Four assays—EtBr efflux activity (Efflux), EtBr resensitization (ER), antimicrobial activity (AA), and hemolytic activity in human red blood cells (RBC) are depicted for linear peptides TM4(85-105) (left panel), and TM4(88-100) (centre); and stapled (S) peptide S-TM4(88-100)-N95 (right). Values for ER, AA and RBCs are given as the minimal inhibitory (MIC) or hemolytic concentration (MHC) (right axis).
# As a necessary measure for any projected clinical applications of the designed inhibitors, hemolytic activity of peptides is assayed in human RBCs to confirm mammalian cell tolerance [Yin et al., 2012, J. Biol. Chem. 287, 7738-7745].
# [2] = tested on: Hsmr; assay: EtBr efflux assay, E. coli expressing Hsmr; type: cell-based, Halobacterium salinarum; settings: E. coli cells expressing Hsmr, EtBr fluorescence decay
# Description: as §1
# FIG. 5. (A) Ethidium bromide efflux from E. coli bacteria expressing Hsmr. Peptides were added to ethidium bromide (EtBr) treated cells and incubated for 1 hr. The fluorescence of EtBr drops as the toxin is effluxed from the cells. ‘No peptide’ (maximum efflux control) is depicted in black. The core sequences of the peptides studied are based on the consensus sequence in Table 1. Residues in red emphasize retention of the common SMR TM4-TM4 interface in pathogenic bacteria. (B) EtBr efflux from E. coli containing plasmid-borne SMR from P. aeruginosa, (Psmr), as mediated by peptide LIN (full sequence=Ac-A(Sar)3-^88IIGIALINAGVVV^100-KKK-NH2). This experiment was performed as described in FIG. 4. […]
# EtBr efflux represents a rapid and validated means by which to screen for SMR-mediated resistance activity [Poulsen and Deber, 2012, Antimicrob. […] Upon its removal, EtBr efflux is monitored by fluorescence decay.
# [3] = tested on: E. coli (BL21 strain) overexpressing the SMR from P. aeruginosa (Psmr); assay: Resensitization of bacteria to growth inhibition by benzalkonium chloride (BZK); type: cell-based; settings: for inhibition of bacterial growth, single agent: agent alone (sublethal BZK or non-toxic dose of peptide); for inhibition of bacterial growth, single agent / inhibition of bacterial growth, peptide together with BZK: result in words; for inhibition of bacterial growth, peptide together with BZK: sub-lethal concentration of BZK plus peptide
# Description: FIG. 7. Resensitization of bacteria to growth inhibition by the disinfectant benzalkonium chloride (BZK). […] However, when the BZK and TM4 peptide were both present at the same concentrations, the bacterial growth was reduced to <1% [i.e., inhibited to >99% (arrow)]. As a control, the same experiment was performed with a ‘scrambled’ version of TM4 peptide (termed SCR control), having identical amino acid composition but lacking the GG7 motif for binding to Psmr and disruption of its native dimer. […] TM4 peptide=Ac-Ala-(Sar)3-[…]-KKK—NH2 (see also Table 1). SCR control peptide=Ac-Ala-(Sar)3-LLVLAGIGIIGLV-KKK—NH2.
# Antimicrobial peptides are exciting leads in the development of novel biocidal agents. Such peptides are currently used commercially in topical formulations, such as the lipopeptides polymyxin B and daptomycin [Kalorama Information Market Intelligence Report, “Health Care Infection Control Market” (126 reports; published on-line May, 2016)]. […] 2013. p. 128]. Despite this, we are not aware of any reports of a peptide that inhibits and/or prevents bacterial resistance to BZK and to other biocide mainstays of hospital and health care facilities. In this context, we examined the ability of the prototypic inhibitor peptides described herein to resensitize pathogenic bacteria to BZK and related disinfectants.
# [4] = target: T1, SMR from P. aeruginosa (Psmr) (Pseudomonas aeruginosa, UniProt Q9HUH5); assay: EtBr efflux assay, E. coli containing plasmid-borne Psmr; type: cell-based; settings: 8 μM peptide; FIG. 5B
# T1 construct: expressed in transfected cells; host or cells: E. coli
# T1 sequence (Q9HUH5 whole entry, looked up): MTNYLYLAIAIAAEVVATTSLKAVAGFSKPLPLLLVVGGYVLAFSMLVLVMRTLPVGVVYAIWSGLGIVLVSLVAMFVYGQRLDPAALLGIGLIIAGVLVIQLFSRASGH
# Description: FIG. 5. (A) Ethidium bromide efflux from E. coli bacteria expressing Hsmr. Peptides were added to ethidium bromide (EtBr) treated cells and incubated for 1 hr. The fluorescence of EtBr drops as the toxin is effluxed from the cells. ‘No peptide’ (maximum efflux control) is depicted in black. The core sequences of the peptides studied are based on the consensus sequence in Table 1. Residues in red emphasize retention of the common SMR TM4-TM4 interface in pathogenic bacteria. (B) EtBr efflux from E. coli containing plasmid-borne SMR from P. aeruginosa, (Psmr), as mediated by peptide LIN (full sequence=Ac-A(Sar)3-^88IIGIALINAGVVV^100-KKK-NH2). This experiment was performed as described in FIG. 4.
# EtBr efflux represents a rapid and validated means by which to screen for SMR-mediated resistance activity [Poulsen and Deber, 2012, Antimicrob. Agents Chemother. 56, 3911-3916]. Here, E. coli cells are incubated with the peptide, EtBr and carbonyl cyanide 3-chlorophenylhydrazone (CCCP), a widely-used ionophore that acts as a disruptor of the proton-motive force. Upon its removal, EtBr efflux is monitored by fluorescence decay.
# In this context, we have recently performed two pilot studies. […]
# [5] = tested on: E. coli; assay: EtBr resensitization assay; type: cell-based; settings: sublethal toxicant plus peptide; FIG. 4B, result in words
# Description: as §1
# Resensitization to EtBr and other toxic SMR substrates are evaluated by incubating the bacteria with a sublethal concentration of the toxicant and twofold dilutions of peptide at 37° C. for 20 hr, after which bacterial growth (or lack thereof) is evaluated [Bellman-Sickert et al., 2015, J. Biol. Chem. 290, 1752-1759]. […]
# [6] = sublethal BZK and non-toxic dose of peptide both present, FIG. 7
Compound,hemolytic activity [1],minimal hemolytic concentration (MHC) [1] [µM],inhibition of Hsmr-mediated EtBr efflux [2],"inhibition of bacterial growth, single agent [3]","inhibition of bacterial growth, peptide together with BZK [3]",other results
CC[C@H](C)[C@H](NC(=O)[C@H](CC(C)C)NC(=O)[C@H](C)NC(=O)[C@H](CC(C)C)NC(=O)CNC(=O)[C@@H](NC(=O)[C@@H](NC(=O)CNC(=O)[C@H](C)NC(=O)[C@@H](NC(=O)CN(C)C(=O)CN(C)C(=O)CN(C)C(=O)[C@H](C)NC(C)=O)C(C)C)C(C)C)C(C)C)C(=O)N[C@H](C(=O)N[C@@H](C)C(=O)NCC(=O)N[C@H](C(=O)N[C@H](C(=O)N[C@H](C(=O)N[C@@H](CC(C)C)C(=O)N[C@@H](CC(N)=O)C(=O)N[C@H](C(=O)N[C@@H](C)C(=O)N[C@@H](CO)C(=O)N[C@@H](CCCCN)C(=O)N[C@@H](CCCCN)C(=O)N[C@@H](CCCCN)C(N)=O)C(C)C)C(C)C)C(C)C)C(C)C)C(C)C [TM4(85-105)] (Ac-A[Sar][Sar][Sar]VAGVVGLALIVAGVVVLNVASKKK-NH2),partially hemolytic,~10,specifically inhibit Hsmr-mediated efflux,,,
"Ac-Ala-(Sar)3-LLVLAGIGIIGLV-KKK—NH2 (Ac-A[Sar][Sar][Sar]LLVLAGIGIIGLVKKK-NH2; SMILES CC[C@H](C)[C@H](NC(=O)CNC(=O)[C@H](C)NC(=O)[C@H](CC(C)C)NC(=O)[C@@H](NC(=O)[C@H](CC(C)C)NC(=O)[C@H](CC(C)C)NC(=O)CN(C)C(=O)CN(C)C(=O)CN(C)C(=O)[C@H](C)NC(C)=O)C(C)C)C(=O)NCC(=O)N[C@H](C(=O)N[C@H](C(=O)NCC(=O)N[C@@H](CC(C)C)C(=O)N[C@H](C(=O)N[C@@H](CCCCN)C(=O)N[C@@H](CCCCN)C(=O)N[C@@H](CCCCN)C(N)=O)C(C)C)[C@@H](C)CC)[C@@H](C)CC) [SCR peptide, scrambled version of TM4 peptide, identical composition but lacking the GG7 motif, reference compound]",,,,neither the mixture of BZK+SCR peptide nor the SCR peptide alone inhibited bacterial growth,neither the mixture of BZK+SCR peptide nor the SCR peptide alone inhibited bacterial growth,"inhibition of bacterial growth, peptide together with BZK ([3]; listed as ‘scrambled’ analog of the TM4 peptide): inactive"
Ac-A(Sar)3-^88IIGIALINAGVVV^100-KKK-NH2 (Ac-A[Sar][Sar][Sar]IIGIALINAGVVVKKK-NH2; SMILES CC[C@H](C)[C@H](NC(=O)CNC(=O)[C@@H](NC(=O)[C@@H](NC(=O)CN(C)C(=O)CN(C)C(=O)CN(C)C(=O)[C@H](C)NC(C)=O)[C@@H](C)CC)[C@@H](C)CC)C(=O)N[C@@H](C)C(=O)N[C@@H](CC(C)C)C(=O)N[C@H](C(=O)N[C@@H](CC(N)=O)C(=O)N[C@@H](C)C(=O)NCC(=O)N[C@H](C(=O)N[C@H](C(=O)N[C@H](C(=O)N[C@@H](CCCCN)C(=O)N[C@@H](CCCCN)C(=O)N[C@@H](CCCCN)C(N)=O)C(C)C)C(C)C)C(C)C)[C@@H](C)CC),,,,,,inhibition of Psmr-mediated EtBr efflux [4]: inhibition of efflux
Ac-Ala-(Sar)3-LLGIGLIIAGVLV-KKK—NH2 (Ac-A[Sar][Sar][Sar]LLGIGLIIAGVLVKKK-NH2; SMILES CC[C@H](C)[C@H](NC(=O)CNC(=O)[C@H](CC(C)C)NC(=O)[C@H](CC(C)C)NC(=O)CN(C)C(=O)CN(C)C(=O)CN(C)C(=O)[C@H](C)NC(C)=O)C(=O)NCC(=O)N[C@@H](CC(C)C)C(=O)N[C@H](C(=O)N[C@H](C(=O)N[C@@H](C)C(=O)NCC(=O)N[C@H](C(=O)N[C@@H](CC(C)C)C(=O)N[C@H](C(=O)N[C@@H](CCCCN)C(=O)N[C@@H](CCCCN)C(=O)N[C@@H](CCCCN)C(N)=O)C(C)C)C(C)C)[C@@H](C)CC)[C@@H](C)CC) [TM4 peptide],,,,neither of which individually significantly inhibited bacterial growth,completely abolishes E. coli growth,"bacterial growth [3, 6]: < 1%; inhibition of bacterial growth [3, 6]: > 99%"
"benzalkonium chloride [BZK, reference compound]",,,,neither of which individually significantly inhibited bacterial growth,,
CC[C@H](C)[C@H](NC(=O)[C@H](CC(C)C)NC(=O)[C@H](C)NC(=O)[C@H](CC(C)C)NC(=O)CNC(=O)[C@@H](NC(=O)[C@@H](NC(=O)CN(C)C(=O)CN(C)C(=O)CN(C)C(=O)[C@H](C)NC(C)=O)C(C)C)C(C)C)C(=O)N[C@H](C(=O)N[C@@H](C)C(=O)NCC(=O)N[C@H](C(=O)N[C@H](C(=O)N[C@H](C(=O)N[C@@H](CCCCN)C(=O)N[C@@H](CCCCN)C(=O)N[C@@H](CCCCN)C(N)=O)C(C)C)C(C)C)C(C)C)C(C)C [TM4(88-100)] (Ac-A[Sar][Sar][Sar]VVGLALIVAGVVVKKK-NH2),total absence of hemolysis,> 200,significant efflux,,,EtBr resensitization (ER) [5]: excellent resensitization; inhibition of Hsmr-mediated EtBr efflux ([2]; listed as Hsmr TM4(88-100)): maintain SMR inhibitory function at levels comparable to the full-length TM4 peptide

# From patent publication US20190352339A1, “PEPTIDE INHIBITOR OF TRANSMEMBRANE PORE FORMATION AND EFFLUXPUMP FUNCTION IN A SMALL MULTIDRUG RESISTANCE PROTEIN FROM PSEUDOMONAS AERUGINOSA” (priority 2017, published 2019)
